Test results reported in patent US11478478B2, “2,3-disubstituted 1-acyl-4-amino-1,2,3,4-tetrahydroquinoline derivatives and their use as bromodomain inhibitors” (GLAXOSMITHKLINE INTELLECTUAL PROPERTY (NO.2) LIMITED, priority 2013, dated 2022).
Counter-ions that a name gives are not always drawn.

Biological target: T1, BRD4 BD2 (Homo sapiens, UniProt O60885, Y97A)
T1 construct: BRD4 (1-477) (Y97A) and (Y390A); made in house; host or cells: E. coli (pET15b vector)
Assay: TR-FRET binding assay, BRD4 BD2 (BD1-mutated protein)
Conditions: read-out: pIC50 in the BRD4 BD2 assay (converted)
Experimental: Time Resolved Fluorescence Resonance Energy Transfer (TR-FRET) Assay Binding was assessed using a time resolved fluorescent resonance energy transfer binding assay. This utilises a 6 His purification tag at the N-terminal of the proteins as an epitope for an anti-6 His antibody labeled with Europium chelate (PerkinElmer AD0111) allowing binding of the Europium to the proteins which acts as the donor fluorophore. A small molecule, high affinity binder of the bromodomains BRD2, BRD3, BRD4 and BRDT has been labeled with Alexa Fluor647 (Reference Compound X) and this acts as the acceptor in the FRET pair.
In the absence of a competing compound, excitation of the Europium causes the donor to emit at λ618 nm which excites the Alexa labelled bromodomain binding compound leading to an increased energy transfer that is measurable at λ647 nM. In the presence of a sufficient concentration of a compound that can bind these proteins, the interaction is disrupted leading to a quantifiable drop in fluorescent resonance energy transfer.
The binding of the compounds of formula (I) to Bromodomains BRD2, BRD3, BRD4 and BRDT was assessed using mutated proteins to detect differential binding to either Binding Domain 1 (BD1) or Binding Domain 2 (BD2) on the bromodomain. These single residue mutations in the acetyl lysine binding pocket greatly lower the affinity of the fluoroligand (Reference Compound X) for the mutated domain (>1000 fold selective for the non-mutated domain). Therefore in the final assay conditions, binding of the fluoroligand to the mutated domain cannot be detected and subsequently the assay is suitable to determine the binding of compounds to the single non-mutated bromodomain.
Recombinant Human Bromodomains [(BRD2 (1-473) (Y113A) and (Y386A), BRD3 (1-435) (Y73A) and (Y348A) BRD4 (1-477) (Y97A) and (Y390A) and BRDT (1-397) (Y66A) and (Y309A)] were expressed in E. coli cells (in pET15b vector for BRD2/3/4 and in pET28a vector for BRDT) with a 6-His tag at the N-terminal. The His-tagged Bromodomain pellet was resuspended in 50 mM HEPES (pH7.5), 300 mM NaCl, 10 mM imidazole & 1 μl/ml protease inhibitor cocktail and extracted from the E. coli cells using sonication and purified using a nickel sepharose high performance column, the proteins were washed and then eluted with a linear gradient of 0-500 mM imidazole with buffer 50 mM HEPES (pH7.5), 150 mM NaCl, 500 mM imidazole, over 20 column volumes. Final purification was completed by Superdex 200 prep grade size exclusion column. Purified protein was stored at −80° C. in 20 mM HEPES pH 7.5 and 100 mM NaCl. Protein identity was confirmed by peptide mass fingerprinting and predicted molecular weight confirmed by mass spectrometry.
All assay components were dissolved in buffer composition of 50 mM HEPES pH7.4, 50 mM NaCl, 5% Glycerol, 1 mM DTT and 1 mM CHAPS. The final concentration of bromodomain proteins were 10 nM and the Alexa Fluor647 ligand was at Kd. These components were premixed and 5 μl of this reaction mixture was added to all wells containing 50 nl of various concentrations of test compound or DMSO vehicle (0.5% DMSO final) in Greiner 384 well black low volume microtitre plates and incubated in dark for 30 minutes at rt. 5 μl of detection mixture containing 1.5 nM final concentration anti-6His Europium chelate was added to all wells and a further dark incubation of at least 30 minutes was performed. Plates were then read on the Envision platereader, (λex=317 nm, donor λem=615 nm; acceptor λem=665 nm; Dichroic LANCE dual). Time resolved fluorescent intensity measurements were made at both emission wavelengths and the ratio of acceptor/donor was calculated and used for data analysis. All data was normalized to the mean of 16 high (inhibitor control—Example 11 of WO 2011/054846A1) and 16 low (DMSO) control wells on each plate. A four parameter curve fit of the following form was then applied: y=a+((b−a)/(1+(10^/10^)^d) […]

| Compound | IC50 |
| --- | --- |
| CC(=O)N1c2ccccc2[C@H](Nc2ccsc2)[C@@H](C)[C@@H]1C (racemic) [Example 12, rac-1-((2S,3R,4R)-2,3-dimethyl-4-(thiophen-3-ylamino)-3,4-dihydroquinolin-1(2H)-yl)ethanone] | 100 nM |
| CC(=O)N1c2ccccc2[C@H](Nc2ccc(Cl)cc2)[C@@H](C)[C@@H]1C (racemic) [Example 13, rac-1-((2S,3R,4R)-4-((4-chlorophenyl)amino)-2,3-dimethyl-3,4-dihydroquinolin-1(2H)-yl)ethanone] | 100 nM |
| COc1ccc(N[C@H]2c3ccccc3N(C(C)=O)[C@@H](C)[C@@H]2C)cc1 (racemic) [Example 15, rac-1-((2S,3R,4R)-4-((4-methoxyphenyl)amino)-2,3-dimethyl-3,4-dihydroquinolin-1(2H)-yl)ethanone] | 100 nM |
| CC(=O)N1c2ccccc2[C@H](Nc2cncc(Cl)c2)[C@@H](C)[C@@H]1C (racemic) [Example 22, rac-1-((2S,3R,4R)-4-((5-chloropyridin-3-yl)amino)-2,3-dimethyl-3,4-dihydroquinolin-1(2H)-yl)ethanone] | 100 nM |
| CC(=O)N1c2ccccc2[C@H](Nc2ccnc(C)c2)[C@@H](C)[C@@H]1C (racemic) [Example 23, rac-1-((2S,3R,4R)-2,3-dimethyl-4-((2-methylpyridin-4-yl)amino)-3,4-dihydroquinolin-1(2H)-yl)ethanone] | 1000 to 100000 nM |
| CC(=O)N1c2ccccc2[C@H](Nc2ccc(C#N)cc2)[C@@H](C)[C@@H]1C1CC1 (racemic) [Example 30, rac-4-(((2S,3R,4R)-1-Acetyl-2-cyclopropyl-3-methyl-1,2,3,4-tetrahydroquinolin-4-yl)amino)benzonitrile] | 100 nM |
| CC(=O)N1c2ccccc2[C@H](Nc2ccc(F)cc2)[C@@H](C)[C@@H]1C1CC1 (racemic) [Example 32, rac-1-((2S,3R,4R)-2-Cyclopropyl-4-((4-fluorophenyl)amino)-3-methyl-3,4-dihydroquinolin-1(2H)-yl)ethanone] | 100 nM |
| CC(=O)N1c2ccccc2[C@H](Nc2cncc(C)n2)[C@@H](C)[C@@H]1C1CC1 (racemic) [Example 48, rac-1-((2S,3R,4R)-2-cyclopropyl-3-methyl-4-((6-methylpyrazin-2-yl)amino)-3,4-dihydroquinolin-1(2H)-yl)ethanone] | 1000 to 100000 nM |
| CC(=O)N1c2ccccc2[C@H](Nc2ncccc2O)[C@@H](C)[C@@H]1C1CC1 (racemic) [Example 49, rac-1-((2S,3R,4R)-2-cyclopropyyl-4-((3-hydroxypyridin-2-yl)amino)-3-methyl-3,4-dihydroquinolin-1(2H)-yl)ethanone] | 1000 to 100000 nM |
| CC(=O)N1c2ccccc2[C@H](Nc2cccc(C#N)n2)[C@@H](C)[C@@H]1C1CC1 (racemic) [Example 50, rac-6-(((2S,3R,4R)-1-acetyl-2-cyclopropyl-3-methyl-1,2,3,4-tetrahydroquinolin-4-yl)amino)picolinonitrile] | 1000 to 100000 nM |
| CC(=O)N1c2ccccc2[C@H](Nc2ccccc2)[C@@H](C)[C@@H]1CC(F)(F)F (racemic) [Example 53, rac-1-((2S,3R,4R)-3-methyl-4-(phenylamino)-2-(2,2,2-trifluoroethyl)-3,4-dihydroquinolin-1(2H)-yl)ethanone] | 1000 to 100000 nM |
| COC[C@H]1[C@H](C)[C@@H](Nc2ccccc2)c2ccccc2N1C(C)=O (racemic) [Example 54, rac-1-((2R,3R,4R)-2-(methoxymethyl)-3-methyl-4-(phenylamino)-3,4-dihydroquinolin-1(2H)-yl)ethanone] | 1000 to 100000 nM |
| CC[C@H]1[C@H](C)[C@@H](Nc2ccc(C#N)cc2)c2cc(F)ccc2N1C(C)=O (racemic) [Example 62, rac-4-(((2S,3R,4R)-1-acetyl-2-ethyl-6-fluoro-3-methyl-1,2,3,4-tetrahydroquinolin-4-yl)amino)benzonitrile] | 100 nM |
| CC(=O)N1c2cc(O)ccc2[C@H](Nc2cccc(C)n2)[C@@H](C)[C@@H]1C1CC1 (racemic) [Example 65, rac-1-((2S,3R,4R)-2-cyclopropyl-7-hydroxy-3-methyl-4-((6-methylpyridin-2-yl)amino)-3,4-dihydroquinolin-1(2H)-yl)ethanone] | 1000 to 100000 nM |
| CC(=O)N1c2ccc(S(C)(=O)=O)cc2[C@H](Nc2cccc(C)n2)[C@@H](C)[C@@H]1C1CC1 (racemic) [Example 67, rac-1-((2S,3R,4R)-2-cyclopropyl-3-methyl-4-((6-methylpyridin-2-yl)amino)-6-(methylsulfonyl)-3,4-dihydroquinolin-1(2H)-yl)ethanone] | 1000 to 100000 nM |
| CC(=O)N1c2ccc(S(=O)(=O)C(C)C)cc2[C@H](Nc2cccc(C)n2)[C@@H](C)[C@@H]1C1CC1 (racemic) [Example 68, rac-1-((2S,3R,4R)-2-cyclopropyl-6-(isopropylsulfonyl)-3-methyl-4-((6-methylpyridin-2-yl)amino)-3,4-dihydroquinolin-1(2H)-yl)ethanone] | 1000 to 100000 nM |

Second part, the compound after the results:

| IC50 | Compound |
| --- | --- |
| 100 nM | CC(=O)N1c2ccccc2[C@H](Nc2cccc(C)c2)[C@@H](C)[C@@H]1C (racemic) [Example 16, rac-1-((2S,3R,4R)-2,3-dimethyl-4-(m-tolylamino)-3,4-dihydroquinolin-1(2H)-yl)ethanone] |
| 100 nM | CC(=O)N1c2ccccc2[C@H](Nc2ccc(C)cc2)[C@@H](C)[C@@H]1C (racemic) [Example 20, rac-1-((2S,3R,4R)-2,3-dimethyl-4-(p-tolylamino)-3,4-dihydroquinolin-1(2H)-yl)ethanone] |
| 100 nM | CC(=O)N1c2ccc(N3CCNCC3)cc2[C@H](Nc2ccccc2)[C@@H](C)[C@@H]1C (racemic) [Example 69, rac-1-((2S,3R,4R)-2,3-dimethyl-4-(phenylamino)-6-(piperazin-1-yl)-3,4-dihydroquinolin-1(2H)-yl)ethanone] |
| 100 nM | CC(=O)N1c2ccc(N3CCOCC3)cc2[C@H](Nc2ccccc2)[C@@H](C)[C@@H]1C (racemic) [Example 70, rac-1-((2S,3R,4R)-2,3-dimethyl-6-morpholino-4-(phenylamino)-3,4-dihydroquinolin-1(2H)-yl)ethanone] |
| 100 nM | CC(=O)N1c2ccc(N3CCNC(C)C3)cc2[C@H](Nc2ccccc2)[C@@H](C)[C@@H]1C (mixture of isomers) [Example 72, 1-((rac-2S,3R,4R)-2,3-dimethyl-6-(3-methylpiperazin-1-yl)-4-(phenylamino)-3,4-dihydroquinolin-1(2H)-yl)ethanone, formate salt] |
| 100 nM | CC(=O)N1c2ccc(N3CCC(N)CC3)cc2[C@H](Nc2ccccc2)[C@@H](C)[C@@H]1C (racemic) [Example 74, rac-1-((2S,3R,4R)-6-(4-aminopiperidin-1-yl)-2,3-dimethyl-4-(phenylamino)-3,4-dihydroquinolin-1(2H)-yl)ethanone, hydrochloride] |
| 100 nM | CC(=O)N1c2ccc(N3CCOC(C)C3)cc2[C@H](Nc2ccccc2)[C@@H](C)[C@@H]1C (mixture of isomers) [Example 77, 1-((rac-2S,3R,4R)-2,3-dimethyl-6-(2-methylmorpholino)-4-(phenylamino)-3,4-dihydroquinolin-1(2H)-yl)ethanone] |
| 100 nM | CC(=O)N1c2ccc(N3CCC(C)C3)cc2[C@H](Nc2ccccc2)[C@@H](C)[C@@H]1C (mixture of isomers) [Example 80, 1-((rac-2S,3R,4R)-2,3-dimethyl-6-(3-methylpyrrolidin-1-yl)-4-(phenylamino)-3,4-dihydroquinolin-1(2H)-yl)ethanone] |
